From patent US20120231482A1, “METHOD, KIT OR DIAGNOSTIC FOR THE DETECTION OF REAGENTS WHICH INDUCE ALTERED CONTRACTILITY” (THE JOHNS HOPKINS UNIVERSITY, priority 2009, published 2012)

Molecular target: T1, actin (Rattus norvegicus, UniProt P68035)
T1 construct: Rat myofibrillar preparations, as described in [7], were obtained from frozen ventricles (Pel Freez Biologicals); tissue Pel Freez Biologicals; host or cells: myofibrils from frozen rat ventricles
Experiment: Gel shift assay, reducing/non-reducing western blot of cardiac myofibrils
Assay type: biochemical
Settings: for actin higher molecular weight forms: non-reducing, lost with 5 mM DTT
Experimental: FIG. 4. Validation and characterizations of HNO modifications. 1 μg of rat cardiac myofibrils treated with HNO donors or control compounds were separated under reducing or nonreducing conditions and western blots probed for candidate proteins tropomyosin, actin, myosin heavy chain, myosin light chain 1 (n=4). […] Silver stained gel analysis indicated a protein band with […] gel mobility that was lost with DTT.
FIG. 5. Evaluation of the interaction between actin and tropomyosin with NCA treatment. Purified rabbit skeletal tropomyosin (0.03 μg) and isolated rat cardiac myofibrils (1 μg) were treated with NCA or AS and evaluated by 1D non-reducing western blot probing for tropomyosin (A) and actin (B) (n=3). […] (C) Fluorescent DIGE analysis of samples from A and B independent labeled indicates NCA specific band (green) above purified TM (blue) and below AS treated myofibrils (red) (n=3). (D) MS analysis of the same gel region identified both tropomyosin and actin in non-reduced lane but not with DTT treatment (n=2).
Gel shift assay. 10 μg of rat myofibrils/treatment were diluted to 0.5 μg/μl in HEN including 0.1% (w/v) SDS and exposed to a treatment for 20 min at 37° C. Samples were diluted to 0.1 ug/ul in 1×LSD sample buffer, treated with 0, 5 or 100 mM DTT and separated by SDS PAGE. Proteins were silver stained or transferred to nitrocellulose and immunoblotted with primary antibodies for tropomyosin sarcomeric (CH1, Sigma-Aldrich Co., St. Louis, Mo., USA), actin (AC-40, Sigma-Aldrich Co., St. Louis, Mo., USA), myosin light chain 1 (MLM527, Abcam, Cambridge, Mass., USA) or myosin heavy chain (3-48, Abcam, Cambridge, Mass., USA). For some silver stained gel bands of interest in-gel digestion was done following the protocol outlined in Shevchenko et al.. Gel slices of interest were excised from the gels cut into 1 mm^3 pieces. Silver stained gel pieces were destained in 1:1(v/v) 30 mM Potassium ferricyanide and 100 mM Sodium thiosulfate and wash three times with ddH2O. Gel pieces were dehydrated in 100% acetonitrile and reswelled in 10 mM DTT and incubated at 55° C. for 1 hour. After the DTT solution was removed, a solution of 55 mM iodoacetimide was added and gel slices were incubated at room temperature protected from light. Gel slices were then washed 3 times with 50% (v/v) ACN, 25 mM (NH4)HCO3 and then fully dehydrated in 100% ACN and dried in a speed vac. Gel pieces were reswelled in a 12.5 ng/μL trypsin (Promega, Madison Wis. USA) solution containing 25 mM (NH4)HCO3 and incubated at 37° C. for >16 hours. Digested peptides were extracted by addition of 5% (v/v) formic acid and incubation for 15 min followed by addition of an equal volume of 100% ACN and 15 min incubation, this step was repeated and the extracts were combined. […]

Structure (SMILES) | actin higher molecular weight forms | antibody epitope binding of monomeric actin (western blot)
[Na+].[Na+].[O-][N+]([O-])=NO [AS, Angeli's Salt] | approximately 80 kDa | 
CC(=O)OC1(N=O)CCCCC1 [NCA, 1-nitrosocyclohexylacetate] | approximately 80 kDa | loss of antibody epitope binding
